Test results reported in ChEMBL document CHEMBL1145600, “Molecular features crucial to the activity of pyrimidine benzamide-based thrombopoietin receptor agonists” (Bioorg Med Chem Lett, 2008).

Target: T1, Thrombopoietin receptor (Homo sapiens) (UniProt P40238)
T1 sequence (whole entry): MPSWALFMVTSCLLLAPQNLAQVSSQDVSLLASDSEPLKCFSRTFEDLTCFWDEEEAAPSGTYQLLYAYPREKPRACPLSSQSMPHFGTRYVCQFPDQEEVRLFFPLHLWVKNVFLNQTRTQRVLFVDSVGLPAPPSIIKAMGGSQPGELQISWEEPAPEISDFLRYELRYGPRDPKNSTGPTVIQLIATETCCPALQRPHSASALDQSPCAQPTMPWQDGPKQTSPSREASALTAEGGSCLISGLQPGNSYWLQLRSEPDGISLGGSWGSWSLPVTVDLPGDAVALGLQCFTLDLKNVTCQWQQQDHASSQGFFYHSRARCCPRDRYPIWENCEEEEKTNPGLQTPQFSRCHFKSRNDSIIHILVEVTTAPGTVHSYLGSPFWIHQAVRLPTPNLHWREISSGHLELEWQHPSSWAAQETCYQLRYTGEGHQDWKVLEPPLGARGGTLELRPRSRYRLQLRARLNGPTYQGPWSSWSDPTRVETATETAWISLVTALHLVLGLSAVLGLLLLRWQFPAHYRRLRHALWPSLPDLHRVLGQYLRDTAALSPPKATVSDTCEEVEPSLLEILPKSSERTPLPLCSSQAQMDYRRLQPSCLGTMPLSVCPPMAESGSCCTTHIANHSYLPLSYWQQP
Experiment: Agonist activity at TPO receptor at 10 uM
Type: functional

Compound	Activity [%]
Nc1nc(-c2c(F)cccc2F)cs1	0
O=C(Nc1nc(-c2ccccc2F)cs1)c1ccc(Nc2ccncn2)cc1	58
O=C(Nc1nc(-c2ccccc2C(F)(F)F)cs1)c1ccc(Nc2ccncn2)cc1	38
O=C(Nc1nc(-c2c(F)cccc2F)cs1)c1ccc(Nc2ccncn2)cc1	0
O=C(Nc1nc(-c2cccc(F)c2)cs1)c1ccc(Nc2ccncn2)cc1	45

Target: T2, Thrombopoietin receptor (Homo sapiens, UniProt P40238)
T2 sequence (P40238 whole entry): T1 sequence (whole entry)
Experiment: Agonist activity at TPO receptor
Type: functional

Compound	EC50 [nM]
Nc1nc(-c2ccccc2F)cs1	6800
Nc1nc(-c2c(F)cccc2F)cs1	> 10000
O=C(Nc1nc2c(s1)COc1c(F)cccc1-2)c1ccc(Nc2ccncn2)cc1	1500
O=C(Nc1nc2c(s1)COc1c(Cl)cccc1-2)c1ccc(Nc2ccncn2)cc1	530
Nc1nc(-c2ccc(C(F)(F)F)cc2F)cs1	260
Nc1nc(-c2cccc(C(F)(F)F)c2F)cs1	57
O=C(Nc1nc2c(s1)COc1ccccc1-2)c1ccc(Nc2ccncn2)cc1	520
Nc1nc(-c2cc(C(F)(F)F)ccc2F)cs1	5200
Cc1sc(N)nc1-c1ccc(F)c(C(F)(F)F)c1	180
Nc1nc(-c2ccc(F)c(C(F)(F)F)c2)cs1	100
Nc1nc(-c2cccc(OC(F)(F)F)c2F)cs1	32
Cc1sc(N)nc1-c1cccc(C(F)(F)F)c1F	540
Nc1nc(-c2ccc(F)c(C(F)(F)F)c2)c(F)s1	89
Nc1nc(-c2cccc(C(F)(F)F)c2F)c(F)s1	700
